Reference: patent US20190292572A1, “Novel protic or phosphate-based ionic liquids useful for lignocellulosic processing” (priority 2016, published 2019)
Where two headings read alike, the source gives them in different places. One block for each molecule: values may come before it.

Key:
pH of ILs = format: physicochemical
cellulases = details: previous literatures; cited from earlier work
[1] = Biomass pretreatment using PBIL: enzymatic saccharification glucose yield
[2] = IL pretreatment and saccharification of different feedstocks: corn stover; details: corn stover (FIG. 4D)
Experimental: (§1) FIG. 4D. Effects of some parameters on the sugar yield: Biomass category. Normal operation conditions: pretreatment, 10 wt % SG loading, 90 wt % IL, 160° C., 0.5 h (3 h for ecucalyptus); saccharification, 10 wt % IL, 20 mg protein/g SG, 50° C., 72 h.
(§2) Thereafter, we explored the feasibilities of [EOA][OAc] for the pretreatment of different feedstocks including mixed feedstocks of SG and eucalyptus (1:1, w/w), eucalyptus (EU), and corn stover (CS).

[3] = One-pot pretreatment and SSF (cellulosic ethanol production); set-up: species or system Panicum virgatum; details: for theoretical ethanol yield: SSF
Experimental: (§3) FIG. 6A. Process optimization of one-pot ethanol fermentation after [EOA][OAc] pretreatment. Effect of yeast loading on ethanol fermentation. Conditions: pretreatment, 40 wt % SG loading, 60 wt % IL, 160° C., 0.5 h; saccharification, 5 wt % IL, 20 mg protein/g SG, pH 5, 50° C., 24 h; fermentation, 37° C., 72 h.
as §3, with “6B.” for “6A.”, “Illustration” for “Effect”, “the glucose consumption and” for “yeast loading on”, “production during SSF.” for “fermentation.”
FIG. 7. Illustration of the glucose consumption and ethanol production during SSF. Conditions: pretreatment, 40 wt % SG loading, 60 wt % IL, 160° C., 0.5 h; saccharification, 5 wt % IL, 20 mg protein/g SG, 50° C., 24 h; fermentation, 37° C., 72 h.
In a typical procedure, SG (100 mg) was mixed with ([EOA][OAc]) at a 40% biomass loading in a 15 mL capped glass pressure tube and pretreated in a convection oven at 160° C. for 0.5 h. After pretreatment, the pretreated slurry was diluted with DI-water to obtain a final IL concentration of 5 wt %, and pre-saccharificated for 24 h under the same aforementioned conditions. Simultaneously, wide type yeast strain BY4741 was prepared. After the addition of yeast strain, the SSF step was conducted for 72 hrs.

[4] = IL pretreatment and saccharification of different feedstocks: eucalyptus; details: 3 h pretreatment (FIG. 4D)
Experimental: as §1, §2

[5] = One-pot IL pretreatment and enzymatic saccharification (sugar yield); set-up: species or system Panicum virgatum; details: for yield of glucose / yield of xylose: 160 °C
Experimental: FIG. 3. Effect of IL type on the sugar yield (pretreatment: 10 wt % SG loading, 90 wt % IL, 140° C., 1 h, saccharification: 10 wt % IL, 10 mg protein per g switchgrass, 50° C., 72 h.
FIG. 4A. Effects of some parameters on the sugar yield: Biomass loading at pretreatment. Normal operation conditions: pretreatment, 10 wt % SG loading, 90 wt % IL, 160° C., 0.5 h (3 h for ecucalyptus); saccharification, 10 wt % IL, 20 mg protein/g SG, 50° C., 72 h.
FIG. 4B. Effects of some parameters on the sugar yield: Temperature/time. Normal operation conditions: pretreatment, 10 wt % SG loading, 90 wt % IL, 160° C., 0.5 h (3 h for ecucalyptus); saccharification, 10 wt % IL, 20 mg protein/g SG, 50° C., 72 h.
In a typical procedure, SG (100 mg) was mixed with ([EOA][OAc]) at a 10% biomass loading in a 15 mL capped glass pressure tube and pretreated in a convection oven at 160° C. for 0.5 h. Untreated raw SG (30-40 mesh) was used as a control. […] Enzymatic saccharification step was operated at 50° C. for 72 hrs with constant agitation on an Enviro Genie SI-1200 rotator platform (Scientific Industries, Inc., Bohemia, N.Y.). The loading of enzyme cocktails (9CTec2/HTec2, v/v) is 20 mg EP per g SG.

[6] = Compositional analysis of switchgrass after IL pretreatment; set-up: species or system Panicum virgatum; details: higher temperature pretreatment vs untreated
Source text: Thus, compositional analysis of untreated, and pretreated SG with [EOA][OAc] at different temperatures and time was studied and the results were summarized in Table 4. Solid recovery refers to the mass percentage of biomass (dry weight) recovered from the original biomass load. After washing, 55-81% of the biomass was recovered. […] Untreated SG contained 29.6% glucan, 18.4% xylan and 20% acid insoluble lignin (entry 1). […] This trend was most obvious after pretreatment under higher temperature where lignin content was reduced by 77% (untreated: 20% vs. pretreated: 4.7%). […] IL are consistent with our previous report by using basic ILs such as [Ch][Lys] and [C2C1Im][Lys].^13
Compositional analysis of SG before and after pretreatment was performed using NREL acidolysis protocols (LAP) LAP-002 and LAP-005, which was described in our previous work.^13 In a typical process, 200 mg of biomass and 2 mL of 72 wt % H2SO4 were incubated at 30° C. while shaking at 300 rpm for 1 h. The solution was diluted to 4 wt % H2SO4 with 56 mL of DI water and autoclaved for 1 h at 121° C. […] Carbohydrate concentrations were determined from the filtrate using an Agilent HPLC 1200 Series equipped with a Bio-Rad Aminex HPX-87H column and a Refractive Index detector. […] Acid insoluble lignin was quantified gravimetrically from the solid after heating overnight at 105° C. […]

[7] = IL pretreatment and saccharification of different feedstocks: mixed feedstocks; details: mixed feedstocks SG and eucalyptus 1:1 (FIG. 4D)
Experimental: as §1, §2

[8] = system: Saccharomyces cerevisiae strain BY4741; test: Toxicity test: yeast growth in IL solution; format: cell-based
Experimental: FIG. 5A. Toxicity test of [EOA][OAc] (A) and effect of biomass loading on sugar yield (B). Conditions: yeast strain: Saccharomyces cerevisiae strain BY4741, growth condition: in 24-well microplate with orbital-high intensity shaking/31° C./in IL solution (10 g/L glucose in each IL solutions), volume of the cell culture was 0.5 mL.
For toxicity screening, a wild type S. cerevisiae BY4741 strain was technically used and it was immersed in various IL concentrations from 2.5 to 15 wt %.

[9] = optimized conditions, short time pretreatment
[10] = T/t 140/1, IL concentration not given

Molecule: NCCO.O=P(O)(O)O [EA-dihydrogenphosphate]
pH (pH of ILs; Table 2): 4.5

pH (pH of ILs; Table 2): 9
Molecule: NCCCC[C@H](N)C(=O)O.NCCO [EA-lysinate-m 1]

Molecule: CC(=O)[O-].CCn1cc[n+](C)c1 [[C2C1Im][OAc], 1-ethyl-3-methyl imidazolium acetate]
IL concentration known to deactivate cellulases (cellulases): ~5 wt %

Molecule: CCCCn1cc[n+](C)c1.[Cl-] [[C4C1Im][Cl], 1-n-butyl-3-methylimidazolium chloride]
IL concentration known to deactivate cellulases (cellulases): ~5 wt %

Molecule: C[N+](C)(C)CCO.C[N+](C)(C)CCO.O=P([O-])([O-])O [[Ch]2[HPO4]]
pH (pH of ILs): 8
Enzymatic Saccharification Glucose yield % ([1]; T/t 140/1, IL 20%): 61.9%
Enzymatic Saccharification Glucose yield % ([1]; T/t 140/1, IL 50%): 55.1%
Enzymatic Saccharification Glucose yield % ([1]; T/t 140/1, IL 100%): 49.7%

Molecule: C[N+](C)(C)CCO.C[N+](C)(C)CCO.C[N+](C)(C)CCO.O=P([O-])([O-])[O-] [[Ch]3[PO4]]
pH (pH of ILs): 12.5
Enzymatic Saccharification Glucose yield % ([1]; T/t 140/1, IL 20%): 54.6%
Enzymatic Saccharification Glucose yield % ([1]; T/t 140/1, IL 50%): 61.1%
Enzymatic Saccharification Glucose yield % ([1]; T/t 140/1, IL 100%): 61.8%

Molecule: C[N+](C)(C)CCO.O=P([O-])(O)O [[Ch][H2PO4], Cholinium dihydrogen-phosphate]
pH (pH of ILs): 4.5
pH (pH of ILs; Table 2): 4.5
Enzymatic Saccharification Glucose yield % ([1]; T/t 140/1, IL 20%): 17.5%
Enzymatic Saccharification Glucose yield % ([1]; T/t 140/1, IL 50%): 16.9%
Enzymatic Saccharification Glucose yield % ([1]; T/t 140/1, IL 100%): 14.4%

Molecule: CC(=O)O.NCCO [[EOA][OAc], ethanolamine acetate]
sugar yields [2]: best performance
theoretical ethanol yield ([3]; 40 wt % SG loading at pretreatment): 70%
theoretical ethanol yield ([3]; yeast loading 0.1 wt % (1 g/L)): around 70%
ethanol produced ([3]; from the glucan present in 1 kg of SG): 117 g
overall conversion in one-pot ([3]; glucan balance, FIG. 7): 70%
glucose from saccharification converted to ethanol ([3]; glucan/glucose balance, FIG. 7): over 90%
ethanol yield versus yeast loading ([3]; yeast loading increased from 0.01 to 0.21 wt % (FIG. 6A)): no significant difference in ethanol yield
sugar yields [4]: low sugar yields
glucose yield ([5]; 10% SG loading, 160 °C pretreated sample): ~85%
glucose yield ([5]; 40 wt % starting biomass loading (60 wt % IL), diluted to 5 wt % IL in saccharification (FIG. 5B)): comparative glucose yield with 20 wt % starting biomass loading
yield of glucose ([5]; pretreatment time 0.5 hrs): 85%
yield of xylose ([5]; pretreatment time 0.5 hrs): 35%
yield of glucose ([5]; pretreatment time 3 hrs): 87%
yield of xylose ([5]; pretreatment time 3 hrs): 42%
glucose yield ([5]; SG loading 25 wt %): Around 60%
glucose yield ([5]; biomass loading 5 to 20 wt % at pretreatment (FIG. 4A)): more than 75%
increase in digestibility of SG ([5]; from 140 to 160 °C): over 40%
sugar yield, IL screening ([5]; low pretreatment temperature and low enzyme loading (FIG. 3: 140 °C, 1 h, 10 mg protein per g switchgrass)): best performance
glucose (monomers) liberated from switchgrass [5, 9]: 85%
xylose (monomers) liberated from switchgrass [5, 9]: 35%
digestibility of SG ([5]; pretreatment 140 °C (FIG. 4B)): 60%
digestibility of SG ([5]; pretreatment 160 °C (FIG. 4B)): 85%
glucose released from SG ([5]; pretreatment 160 °C, 15 min): 45%
lignin content reduced by [6]: 77%
sugar yields [7]: low sugar yields
yeast growth ([8]; 5 wt % IL concentration): better yeast growth
IL titer at which better yeast growth occurs ([8]; IL concentrations from 2.5 to 15 wt %, FIG. 5A): below 10 wt %

Molecule: CCCCN(CCCC)CCCC.O=P(O)(O)O [[N444][H2PO4]]
ILs pH (pH of ILs; Table 5): 4.5
Enzymatic Saccharification Glucose yield % ([1]; T/t 50/3): 13.4 ± 2.6%
Enzymatic Saccharification Glucose yield % ([1]; T/t 90/3): 16.2 ± 0.6%

Molecule: Cholinium bicarbonate [[Ch][Bicarbonate]]
Enzymatic Saccharification Glucose yield % [1, 10]: 52.8 ± 4.3%

Molecule: dimethylammonium dimethylcarbamate
Enzymatic Saccharification Glucose yield % [1, 10]: 55.2 ± 3.9%
